Structures are written as SMILES.

The target of test [1] is T1, cloned human M4 receptor (human Muscarinic receptor subtype 4) (Homo sapiens, UniProt P08173).
T1 construct: purchased Perkin-Elmer RBHM4M; host or cells: Chinese hamster ovary cells (CHO) membranes
T1 sequence (P08173 1-479): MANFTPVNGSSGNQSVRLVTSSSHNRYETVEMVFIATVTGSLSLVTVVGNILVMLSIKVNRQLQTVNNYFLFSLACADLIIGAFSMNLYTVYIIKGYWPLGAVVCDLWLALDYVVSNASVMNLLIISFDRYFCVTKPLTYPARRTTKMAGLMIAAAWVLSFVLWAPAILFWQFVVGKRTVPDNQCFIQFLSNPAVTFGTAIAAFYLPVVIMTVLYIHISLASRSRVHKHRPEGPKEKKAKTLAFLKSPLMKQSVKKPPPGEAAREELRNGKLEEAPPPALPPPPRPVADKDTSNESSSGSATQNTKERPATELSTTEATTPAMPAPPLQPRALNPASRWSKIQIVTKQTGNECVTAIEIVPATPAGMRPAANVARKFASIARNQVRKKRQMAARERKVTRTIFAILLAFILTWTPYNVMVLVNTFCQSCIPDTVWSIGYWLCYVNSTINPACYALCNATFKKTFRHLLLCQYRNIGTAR
Put plainly: hM4 receptor GTPγS binding. It counts as biochemical. The conditions noted are these: CHO cell membranes expressing hM4; [35S]GTPγS binding; read-out: hM4 EC50. How it is done: hM4 Receptor GTPγS Binding
Membranes produced from Chinese hamster ovary cells (CHO) expressing the cloned human M4 receptor (human Muscarinic receptor subtype 4, gene bank access NM_000741), are obtained from Perkin-Elmer (RBHM4M). The membranes are thawed at 37° C., passed 3 times through a 23-gauge blunt-end needle, diluted in the GTPγS binding buffer (50 mM Hepes, 20 mM NaOH, 100 mM NaCl, 1 mM EDTA, 5 mM MgCl2, pH 7.4, 100 μM DTT). The EC50, IC50 and Emax of the compounds of the invention are evaluated from 10-point dose-response curves (three fold concentration range) done in 60 μl in 384-well non-specific binding surface plate (Corning). Ten microliters from the dose-response curves plate (5× concentration) are transferred to another 384 well plate containing 25 μl of the following: 10 μg of hM4 membranes, 500 μg of Flashblue beads (Perkin-Elmer) and GDP 40 μM. An additional 15 μl containing 3.3× (60,000 dpm) of GTPγ^35S (0.4 nM final) are added to the wells resulting in a total well volume of 50 μl. Basal and maximal stimulated [^35S]GTPγS binding are determined in absence and presence of 30 μM final of acetylcholine agonist. The membranes/beads mix are pre-incubated for 15 minutes at room temperature with 40 μM GDP prior to distribution in plates (20 μM final). The reversal of acetylcholine-induced stimulation (10 μM final) of [^35S]GTPγS binding is used to assay the antagonist properties (IC50) of the compounds. The plates are incubated for 60 minutes at room temperature then centrifuged at 400 rpm for 5 minutes. The radioactivity (cpm) is counted in a Trilux (Perkin-Elmer).
(§1) Values of EC50, IC50 and Emax are obtained using sigmoidal fits of a non-linear curve-fitting program (XLfit version 4.2.2 Excel add-in version 4.2.2 build 18 math 1Q version 2.1.2 build 18) of percent stimulated [^35S]GTPγS binding vs. log(molar ligand). All pEC50 and plC50 values are reported as arithmetic means ±standard error of mean of ‘n’ independent experiments.

The target in test [2] is T2, cloned human M2 receptor (human Muscarinic receptor subtype 2) (Homo sapiens, UniProt P08172).
T2 construct: purchased Perkin-Elmer RBHM2M; host or cells: Chinese hamster ovary cells (CHO) membranes
T2 sequence (P08172 1-466): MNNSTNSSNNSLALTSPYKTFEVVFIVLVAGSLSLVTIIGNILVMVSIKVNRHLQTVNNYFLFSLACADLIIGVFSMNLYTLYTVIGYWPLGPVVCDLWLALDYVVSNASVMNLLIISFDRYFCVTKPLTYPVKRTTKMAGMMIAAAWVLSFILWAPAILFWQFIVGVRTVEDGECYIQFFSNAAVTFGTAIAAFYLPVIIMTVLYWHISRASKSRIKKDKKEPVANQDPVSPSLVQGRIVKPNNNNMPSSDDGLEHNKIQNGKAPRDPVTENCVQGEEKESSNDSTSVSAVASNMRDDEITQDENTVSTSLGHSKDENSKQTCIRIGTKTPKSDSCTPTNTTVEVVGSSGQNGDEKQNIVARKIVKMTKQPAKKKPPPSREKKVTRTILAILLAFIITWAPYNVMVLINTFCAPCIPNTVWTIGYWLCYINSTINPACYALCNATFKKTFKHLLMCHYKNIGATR
Put plainly: hM2 receptor GTPγS binding. Type of test: biochemical. Particulars: CHO cell membranes expressing hM2; [35S]GTPγS binding; read-out: hM2 EC50. The protocol:
hM2 Receptor GTPγS Binding
Membranes produced from Chinese hamster ovary cells (CHO) expressing the cloned human M2 receptor (human Muscarinic receptor subtype 2, gene bank access NM_000739), are obtained from Perkin-Elmer (RBHM2M). The membranes are thawed at 37° C., passed 3 times through a 23-gauge blunt-end needle, diluted in the GTPγS binding buffer (50 mM Hepes, 20 mM NaOH, 100 mM NaCl, 1 mM EDTA, 5 mM MgCl2, pH 7.4, 100 μM DTT). The EC50, IC50 and Emax of the compounds of the invention are evaluated from 10-point dose-response curves (three fold concentration range) done in 60 μl in 384-well non-specific binding surface plate (Corning). Ten microliters from the dose-response curves plate (5× concentration) are transferred to another 384 well plate containing 25 μl of the following: 5 μg of hM2 membranes, 500 μg of Flashblue beads (Perkin-Elmer) and GDP 25 μM. An additional 15 μl containing 3.3× (60,000 dpm) of GTPγ^35S (0.4 nM final) are added to the wells resulting in a total well volume of 50 μl. Basal and maximal stimulated [^35S]GTPγS binding are determined in absence and presence of 30 μM final of acetylcholine agonist. The membranes/beads mix are pre-incubated for 15 minutes at room temperature with 25 μM GDP prior to distribution in plates (12.5 μM final). The reversal of acetylcholine-induced stimulation (2 μM final) of [^35S]GTPγS binding is used to assay the antagonist properties (IC50) of the compounds. The plates are incubated for 60 minutes at room temperature then centrifuged at 400 rpm for 5 minutes. The radioactivity (cpm) is counted in a Trilux (Perkin-Elmer).
as §1
A general note: Binding of GTPγS marks nucleotide exchange on a G protein.

A word on the EC50: it is the concentration at which the effect is half-maximal. As to `COC(=O)N1CCC(C)(N2CCC(n3c(=O)[nH]c4ccccc43)CC2)C1` (racemic) [Example 2, methyl 3-methyl-3-(4-(2-oxo-2,3-dihydro-1H-benzo[d]imidazol-1-yl)piperidin-1-yl)pyrrolidine-1-carboxylate], the results for the EC50 in test [1] and in test [2] were 2480 nM and 865 nM, respectively.

For the molecule `CC1(N2CCC(n3c(=O)[nH]c4ccccc43)CC2)CCN(C(=O)OCCF)C1` (racemic) [Example 4, 2-fluoroethyl 3-methyl-3-(4-(2-oxo-2,3-dihydro-1H-benzo[d]imidazol-1-yl)piperidin-1-yl)pyrrolidine-1-carboxylate], the results for the EC50 in test [1] and in test [2] were 4380 nM and 1860 nM, respectively.

Take `CCOC(=O)N1CCC(C)(N2CCC(n3c(=O)[nH]c4cc(F)ccc43)CC2)C1` (single isomer, unassigned) [Example 6, ethyl 3-(4-(5-fluoro-2-oxo-2,3-dihydro-1H-benzo[d]imidazol-1-yl)piperidin-1-yl)-3-methylpyrrolidine-1-carboxylate]: the EC50 in test [1] was found to be 1730 nM; in test [2], 588 nM.

Take `CCOC(=O)N1CCC(C)(N2CCC(n3c(=O)[nH]c4cc(F)ccc43)CC2)C1` (single isomer, unassigned) [Example 7, ethyl 3-(4-(5-fluoro-2-oxo-2,3-dihydro-1H-benzo[d]imidazol-1-yl)piperidin-1-yl)-3-methylpyrrolidine-1-carboxylate]: the EC50 in test [1] was more than 24400 nM; in test [2], 4500 nM.

For `CCOC(=O)N1CCC(C)(N2CCC(n3c(=O)[nH]c4cc(C)ccc43)CC2)C1` (single isomer, unassigned) [Example 12, ethyl 3-methyl-3-(4-(5-methyl-2-oxo-2,3-dihydro-1H-benzo[d]imidazol-1-yl)piperidin-1-yl)pyrrolidine-1-carboxylate], the EC50 in test [1] was 2000 nM; in test [2], 771 nM.

For the molecule `Cc1ccc2c(c1)[nH]c(=O)n2C1CCN(C2(C)CCN(C(=O)OC(C)C)C2)CC1` (single isomer, unassigned) [Example 14, isopropyl 3-methyl-3-(4-(5-methyl-2-oxo-2,3-dihydro-1H-benzo[d]imidazol-1-yl)piperidin-1-yl)pyrrolidine-1-carboxylate], the EC50 in test [1] is more than 90000 nM; in test [2], 1500 nM.

With `Cc1ccc2c(c1)[nH]c(=O)n2C1CCN(C2(C)CCN(C(=O)OC(C)C)C2)CC1` (single isomer, unassigned) [Example 15, isopropyl 3-methyl-3-(4-(5-methyl-2-oxo-2,3-dihydro-1H-benzo[d]imidazol-1-yl)piperidin-1-yl)pyrrolidine-1-carboxylate], the EC50 in test [1] is more than 90000 nM; in test [2], 2850 nM.

Consider `CC#CCOC(=O)N1CCC(C)(N2CCC(n3c(=O)[nH]c4ccc(C)cc43)CC2)C1` (single isomer, unassigned) [Example 20, but-2-ynyl 3-methyl-3-(4-(6-methyl-2-oxo-2,3-dihydro-1H-benzo[d]imidazol-1-yl)piperidin-1-yl)pyrrolidine-1-carboxylate], for which the results for the EC50 in test [1] and in test [2] were 97 nM and 61 nM, respectively.

As to `CC#CCOC(=O)N1CCC(C)(N2CCC(n3c(=O)[nH]c4cc(C)ccc43)CC2)C1` (single isomer, unassigned) [Example 21, but-2-ynyl 3-methyl-3-(4-(5-methyl-2-oxo-2,3-dihydro-1H-benzo[d]imidazol-1-yl)piperidin-1-yl)pyrrolidine-1-carboxylate], the EC50 in test [1] amounted to 262 nM; in test [2], 94 nM.

With `CC#CCOC(=O)N1CCC(C)(N2CCC(n3c(=O)[nH]c4cc(F)ccc43)CC2)C1` (single isomer, unassigned) [Example 22, but-2-ynyl 3-(4-(5-fluoro-2-oxo-2,3-dihydro-1H-benzo[d]imidazol-1-yl)piperidin-1-yl)-3-methylpyrrolidine-1-carboxylate], the figures for the concentration for a half-maximal effect (EC50) in test [1] and in test [2] were 421 nM and 126 nM, respectively.

With `COC(=O)N1CCC(C)(N2CCC(n3c(=O)[nH]c4cc(F)ccc43)CC2)C1` (single isomer, unassigned) [Example 23, methyl 3-(4-(5-fluoro-2-oxo-2,3-dihydro-1H-benzo[d]imidazol-1-yl)piperidin-1-yl)-3-methylpyrrolidine-1-carboxylate], the EC50 in test [1] was determined as 3870 nM; in test [2], 668 nM.

In the case of `CC1(N2CCC(n3c(=O)[nH]c4cc(F)ccc43)CC2)CCN(C(=O)OCCF)C1` (single isomer, unassigned) [Example 24, 2-fluoroethyl 3-(4-(5-fluoro-2-oxo-2,3-dihydro-1H-benzo[d]imidazol-1-yl)piperidin-1-yl)-3-methylpyrrolidine-1-carboxylate], the EC50 in test [1] was found to be 5090 nM; in test [2] it was 1350 nM.

As to `C#CCOC(=O)N1CCC(C)(N2CCC(n3c(=O)[nH]c4cc(F)ccc43)CC2)C1` (single isomer, unassigned) [Example 25, prop-2-ynyl 3-(4-(5-fluoro-2-oxo-2,3-dihydro-1H-benzo[d]imidazol-1-yl)piperidin-1-yl)-3-methylpyrrolidine-1-carboxylate], the half-maximal effective concentration (EC50) in test [1] was found to be 684 nM; in test [2] it was 146 nM.

For the molecule `Cc1ccc2[nH]c(=O)n(C3CCN(C4(C)CCN(C(=O)OCCF)C4)CC3)c2c1` (single isomer, unassigned) [Example 26, 2-fluoroethyl 3-methyl-3-(4-(6-methyl-2-oxo-2,3-dihydro-1H-benzo[d]imidazol-1-yl)piperidin-1-yl)pyrrolidine-1-carboxylate], the EC50 in test [1] stood at 857 nM; in test [2], 146 nM.

As to `Cc1ccc2c(c1)[nH]c(=O)n2C1CCN(C2(C)CCN(C(=O)OCCF)C2)CC1` (single isomer, unassigned) [Example 27, 2-fluoroethyl 3-methyl-3-(4-(5-methyl-2-oxo-2,3-dihydro-1H-benzo[d]imidazol-1-yl)piperidin-1-yl)pyrrolidine-1-carboxylate], the EC50 in test [1] worked out at 3090 nM; in test [2], 620 nM.

Source of the values: patent US20090221642A1, “MUSCARINIC RECEPTOR AGONISTS, COMPOSITIONS, METHODS OF TREATMENT THEREOF, AND PROCESSES FOR PREPARATION THEREOF-176” (AstraZeneca AB, priority 2008, published 2009).
